# Test results taken from patent US20240353394A1, “ASSAY METHODS FOR SCREENING INHIBITORS OF SICKLE CELL DISEASE, ß-THALASSEMIA, OR SICKLE CELL ß-THALASSEMIA, OR A PHENOTYPE THEREOF” (Alexion Pharmaceuticals, Inc., priority 2021, published 2024).
# Key:
# Format in all cases: cell-based, human
# monocytes in whole blood = assay: Heme-induced tissue factor expression on monocytes in whole blood, flow cytometry; settings: hirudin whole blood; for Q2 % Parent TF+: CD14 monocytes, inhibitor 1 μM, heme 100 μM, 4 hrs 37° C., Table 5
# Description: Human whole blood was obtained internally from healthy donors according to Institutional Review Board protocol. Blood was drawn into custom hirudin blood draw tubes obtained from Haematologic Technologies (cat. SCAT-296-5/5, 500 ATU/mL). This anti-coagulant allows simultaneous activation of complement and coagulation (through but not beyond thrombin). Blood was aliquoted into facs tubes (0.2 mL per tube) and inhibitors added to 1 μM. Heme was added to 100 μM and the samples were incubated for 4 hrs at 37° C., 5% CO2, mixing approximately every 30 minutes. To stain for flow cytometry, 10 μL of TruStain FcX (Biolegend, cat. 422302) was added for a 5-10 minute incubation at RT (to block IgG receptors). Mouse anti-human CD14 PerCP Cy5.5 (BD Biosciences, cat. 550787) (5 μL per sample) and mouse anti-human tissue factor-PE (BD Biosciences, cat. 550312) were added (20 μL per sample) and the samples were mixed and incubated for 30 minutes at RT. To lyse RBCs, 3 mLs of 1× lysis buffer (BD Biosciences Cat. 555899) was added to each tube followed by vortexing and incubation for 20 min at RT. The samples were centrifuges at 340 g for 5 minutes and washed twice with PBS. Cell pellets were resuspended in 0.5 mL PBS and acquired on the LSR Fortessa for flow cytometric analysis. Monocytes were gated via CD14 triggering and data was expressed as percentage of CD14 monocytes positive for tissue factor (TF).
# SS-RBCs [1] = assay: Heme-induced complement (iC3b, C5b-9) deposition on SS-RBCs, flow cytometry; settings: for Q2 % Parent iC3b+ / Q2 % Parent C5b-9+: 20% autologous serum, heme 400 μM, 20-30 min 37° C.; for Q2 % Parent iC3b+: Table 3, FIG. 2A; for Q2 % Parent C5b-9+: Table 3, FIG. 2B; for effect on heme-induced C3 deposition (opsonization) on SS-RBCs / effect on heme-induced C5b-9 (MAC) deposition on SS-RBCs: heme and autologous serum; for effect on heme-induced C3 deposition (opsonization) on SS-RBCs: FIG. 2A; for effect on heme-induced C5b-9 (MAC) deposition on SS-RBCs: FIG. 2B
# From the text: (§1) RBCs and serum from SCD patients homozygous for the mutation in the hemoglobin gene (SS) were obtained from BioIVT (cat HUMANRBCALSUZN and HMRBC-SCA respectively) and from Sanguine Biosciences (Study #24348). Gelatin Veronal Buffer (GVB) was obtained from Boston Bioproducts (cat. IBB-300X). Mg-EGTA (cat. B106), C8 depleted normal human serum (cat. A325) and normal human serum (cat. NHS) were obtained from Complement Technology. PBS was obtained from Corning, cat. 21-031-CV. Porcine heme (Sigma, cat. 51280) was used at various concentrations (50-800 uM) to amplify complement activation and induce deposition on human cells.
# (§2) All centrifugations were performed at 440×g for 5 min at 4° C. and supernatants aspirated with multi-channel pipets to avoid disturbing the loose RBC pellets.
# Patient SS-RBCs were washed two or three times in PBS. To induce complement deposition, RBCs were resuspended in GVB, 5 mM Mg-EGTA (assay buffer) at 5×10^7 cells/mL and 30 μL added to sterile V-96 wells. Autologous serum was added to 20% final concentration. Complement inhibitors were diluted in assay buffer at 5× working stock of 3.125 μM and 10 μL added to wells containing cells. Porcine heme was added to 400 μM and the cells incubated for 20-30 minutes at 37° C., 5% CO2. Complement activation was stopped by the addition of 150 μL/well PBS containing 10 mM EDTA. Cells were centrifuged and washed once with 200 μL PBS and stained for iC3b and C5b-9 deposition below.
# Flow cytometric Analysis of iC3b and C5b-9 Deposition on the Surface of SS-RBCs
# (§3) Cells were resuspended in 50 μL per well iC3b (Quidel, cat. A209) or C5b-9 antibody (Quidel, cat. A239) diluted to 4 μg/mL in PBS and incubated for 20-30 min at 4° C. (in some cases, staining for flow cytometry was performed in sheath fluid). Cells were washed twice with 150-200 μL PBS, resuspended in 50 μL goat anti-mouse IgG (H+L)-AF488 (Invitrogen cat. A11029) diluted to 4 μg/mL in PBS and incubated for 20-30 min at 4° C. In some experiments, goat anti-mouse IgG2b AF488 was used at 4 μg/mL (Invitrogen, cat. A21141). Cells were washed twice with 150-200 μL PBS and acquired on the LSR Fortessa for flow cytometric analysis.
# HMEC-1 cells = assay: Heme-induced complement (iC3b, C5b-9) deposition on HMEC-1 cells, flow cytometry; settings: for Q2 % Parent iC3b+ / Q2 % Parent C5b-9+: HMEC-1, 20% normal human serum, 1 uM inhibitor, heme 400 μM, 20-30 min 37° C.; for Q2 % Parent iC3b+: Table 4, FIG. 4A; for Q2 % Parent C5b-9+: Table 4, FIG. 4B; for effect on heme-induced C3 deposition on endothelial cells / effect on heme-induced C5b-9 (MAC, TCC) deposition on endothelial cells: HMEC-1, heme and NHS; for effect on heme-induced C3 deposition on endothelial cells: FIG. 4A; for effect on heme-induced C5b-9 (MAC, TCC) deposition on endothelial cells: FIG. 4B
# Description: The endothelial cell line HMEC-1 was purchased from ATCC (CRL 3243) and expanded and banked at AcCellerate (Cat. CBA02, lot 92-190318FG01). This is a dermal microvascular endothelial cell line. Cells were used in experiments at passage <5.
# All centrifugation steps were performed for 5-7 min at 200-300 g at room temperature (RT). HMEC-1 cells were seeded into 6 well plates at 1.5×10^5 cells per well in medium (Endothelial cell growth medium MV2, Promocell, cat. 22022) and allowed to reach confluency (72 hrs). Normal human serum (Complement Technologies, cat. NHS) was spiked with 1 uM inhibitor, diluted to 20% using Live cell imaging solution (LCIS) (Invitrogen, cat A1429DJ) containing 5-10 mM MgEGTA and added to HMEC-1 cultures in place of the medium. Heme was added to 400 μM, mixed and incubated for 20-30 min at 37° C. Cells were rinsed twice with 2 mLs PBS (Corning, cat. 21-031-CV) and detached with PBS containing 10 mM EDTA (Corning, cat. 46-034-CI). Cells were centrifuged, pellets resuspended in 400 μL sheath fluid (BD Biosciences, cat. 342003) and transferred to V-bottom 96 well plates in duplicate. After centrifugation, pellets were resuspended in 50 μL per well sheath fluid containing either iC3b or C5b-9 antibody diluted to 4 μg/mL. Following several washes, the cells were incubated with 50 μL of goat anti mouse IgG (H+L) AF 488 diluted to 4 μg/mL in sheath fluid for 30 min at 4° C. Following several washes, cells were acquired on the LSR Fortessa for flow cytometry analysis.
# SS-RBCs [2] = assay: Heme dose-dependent induction of iC3b deposition on SS-RBCs
# From the text: as §1, §2
# Patient SS-RBCs were washed three times in PBS, resuspended in GVB, 5 mM Mg-EGTA and re-distributed to sterile V-bottom 96 well plates at a concentration of 2×10^6 cells/well. […] Heme was used at 0, 100, 200, 400, and 800 μM. Following incubation for 20-30 minutes at 37° C. 5% CO2, PBS containing 10% EDTA (Corning, cat. 46-030-CI) was added to stop complement activation. RBCs were washed and stained with antibody to iC3b as detailed below.
# as §3
# whole blood = assay: IL-8 production in whole blood model of thromboinflammation; settings: heme, FIG. 6
molecule,measurement,setting,value
"CC(=O)c1nn(CC(=O)N2[C@H](C(=O)Nc3nc(Br)ccc3C)C[C@@]3(C)C[C@@H]23)c2ccc(-c3cnc(C)nc3)cc12 [ALXN2050, vermincopan]",Q2 % Parent TF+,monocytes in whole blood,1.4%
same,Q2 % Parent iC3b+,SS-RBCs [1],3.5%
same,Q2 % Parent C5b-9+,SS-RBCs [1],3.4%
same,Q2 % Parent iC3b+,HMEC-1 cells,3.4%
same,Q2 % Parent C5b-9+,HMEC-1 cells,3%
same,effect on heme-induced C3 deposition on endothelial cells,HMEC-1 cells,block
same,"effect on heme-induced C5b-9 (MAC, TCC) deposition on endothelial cells",HMEC-1 cells,block
C=CC1=C(C)c2cc3[n-]c(cc4[n-]c(cc5nc(cc1n2)C(C)=C5C=C)c(C)c4CCC(=O)O)c(CCC(=O)O)c3C.[Fe+2] [heme],Q2 % Parent iC3b+,"SS-RBCs [2]; 100 uM heme, 20% SS-Serum",18.3%
same,Q2 % Parent iC3b+,"SS-RBCs [2]; 100 uM heme, No Serum",2%
same,Q2 % Parent iC3b+,"SS-RBCs [2]; 200 uM Heme, 20% SS-Serum",22.8%
same,Q2 % Parent iC3b+,"SS-RBCs [2]; 200 uM Heme, No Serum",1.3%
same,Q2 % Parent iC3b+,"SS-RBCs [2]; 400 uM heme, 20% SS-Serum",49.6%
same,Q2 % Parent iC3b+,"SS-RBCs [2]; 400 uM heme, No Serum",1.1%
same,Q2 % Parent iC3b+,"SS-RBCs [2]; 800 uM heme, 20% SS-Serum",69.7%
same,Q2 % Parent iC3b+,"SS-RBCs [2]; 800 uM heme, No Serum",0.8%
same,induction of C3 deposition (opsonization) on SS-RBCs,"SS-RBCs [2]; heme 100-800 μM, 20% autologous serum, FIG. 3",potent and dose dependent opsonization
"Crizanlizumab: antibody manufactured using the published sequence of Crizanlizumab, an anti-P-selectin antibody FDA approved for prevention of VOC in SCD (antibody, chains of the INN, looked up, V domains shown) VH: QVQLVQSGAEVKKPGASVKVSCKVSGYTFTSYDINWVRQAPGKGLEWMGWIYPGDGSIKYNEKFKGRVTMTVDKSTDTAYMELSSLRSEDTAVYYCARRGEYGNYEGAMDYWGQGTLVTVSS VL: DIQMTQSPSSLSASVGDRVTITCKASQSVDYDGHSYMNWYQQKPGKAPKLLIYAASNLESGVPSRFSGSGSGTDFTLTISSLQPEDFATYYCQQSDENPLTFGGGTKVEIK",Q2 % Parent TF+,monocytes in whole blood,23.2%
same,effect on heme-induced TF upregulation by monocytes,"monocytes in whole blood; heme, FIG. 5A, FIG. 5B",no effect
same,effect on IL-8 production,whole blood,no effect
same,Q2 % Parent iC3b+,SS-RBCs [1],38.6%
same,Q2 % Parent C5b-9+,SS-RBCs [1],7.3%
same,effect on heme-induced C3 deposition (opsonization) on SS-RBCs,SS-RBCs [1],little to no effect
same,effect on heme-induced C3 deposition (opsonization) on SS-RBCs,SS-RBCs [1]; listed as anti-P-selectin antibody,no effect
same,effect on heme-induced C5b-9 (MAC) deposition on SS-RBCs,SS-RBCs [1],little to no effect
same,effect on heme-induced C5b-9 (MAC) deposition on SS-RBCs,SS-RBCs [1]; listed as anti-P selectin antibody,no effect
same,Q2 % Parent iC3b+,HMEC-1 cells,82.9%
same,Q2 % Parent C5b-9+,HMEC-1 cells,53.7%
same,effect on heme-induced C3 deposition on endothelial cells,HMEC-1 cells,no effect
same,"effect on heme-induced C5b-9 (MAC, TCC) deposition on endothelial cells",HMEC-1 cells,no effect
